Here are results for 13 compounds from patent US9884849B2, “Fluorinated benzofuranyl-pyrimidine derivatives containing a sulfoximine group” (Bayer Pharma Aktiengesellschaft, priority 2014, dated 2018).

Read-outs that look alike come from different tables or passages of the source.

Assay [1] concerns the target T1, CDK9/CycT1 (Homo sapiens, UniProt P50750).
T1 construct: Recombinant full-length His-tagged human CDK9 and CycT1; His; purchased Invitrogen PV4131; host or cells: insect cells
As to the kind of experiment: CDK9/CycT1 high ATP kinase assay (Method 1b, TR-FRET). Format: biochemical. The conditions noted are these: 2 mM ATP; for Selectivity high ATP CDK9 over high ATP CDK2: IC50 (high ATP CDK2)/IC50 (high ATP CDK9): Methods 1b. and 2b. How it is done: 1b. CDK9/CycT1 High ATP Kinase Assay
CDK9/CycT1-Inhibitory Activity of Compounds of the Present Invention at a High ATP Concentration after Preincubation of Enzyme and Test Compounds was Quantified Employing the CDK9/CycT1 TR-FRET Assay as Described in the Following Paragraphs.
Recombinant full-length His-tagged human CDK9 and CycT1, expressed in insect cells and purified by Ni-NTA affinity chromatography, were purchase from Invitrogen (Cat. No PV4131). As substrate for the kinase reaction biotinylated peptide biotin-Ttds-YISPLKSPYKISEG (C-terminus in amid form) was used which can be purchased e.g. form the company JERINI peptide technologies (Berlin, Germany). For the assay 50 nl of a 100 fold concentrated solution of the test compound in DMSO was pipetted into a black low volume 384 well microtiter plate (Greiner Bio-One, Frickenhausen, Germany), 2 μl of a solution of CDK9/CycT1 in aqueous assay buffer [50 mM Tris/HCl pH 8.0, 10 mM MgCl2, 1.0 mM dithiothreitol, 0.1 mM sodium ortho-vanadate, 0.01% (v/v) Nonidet-P40 (Sigma)] were added and the mixture was incubated for 15 min at 22° C. to allow pre-binding of the test compounds to the enzyme before the start of the kinase reaction. Then the kinase reaction was started by the addition of 3 μl of a solution of adenosine-tri-phosphate (ATP, 3.3 mM=>final conc. in the 5 μl assay volume is 2 mM) and substrate (1.67 μM=>final conc. in the 5 μl assay volume is 1 μM) in assay buffer and the resulting mixture was incubated for a reaction time of 25 min at 22° C. The concentration of CDK9/CycT1 was adjusted depending of the activity of the enzyme lot and was chosen appropriate to have the assay in the linear range, typical concentrations were in the range of 0.5 μg/mL. The reaction was stopped by the addition of 5 μl of a solution of TR-FRET detection reagents (0.2 μM streptavidine-XL665 [Cisbio Bioassays, Codolet, France] and 1 nM anti-RB(pSer807/pSer811)-antibody from BD Pharmingen [#558389] and 1.2 nM LANCE EU-W1024 labeled anti-mouse IgG antibody [Perkin-Elmer, product no. AD0077]) in an aqueous EDTA-solution (100 mM EDTA, 0.2% (w/v) bovine serum albumin in 100 mM HEPES/NaOH pH 7.0).
The resulting mixture was incubated 1 h at 22° C. to allow the formation of complex between the phosphorylated biotinylated peptide and the detection reagents. Subsequently the amount of phosphorylated substrate was evaluated by measurement of the resonance energy transfer from the Eu-chelate to the streptavidine-XL. Therefore, the fluorescence emissions at 620 nm and 665 nm after excitation at 350 nm was measured in a HTRF reader, e.g. a Rubystar (BMG Labtechnologies, Offenburg, Germany) or a Viewlux (Perkin-Elmer). The ratio of the emissions at 665 nm and at […] was taken as the measure for the amount of phosphorylated substrate. The data were normalised (enzyme reaction without inhibitor=0% inhibition, all other assay components but no enzyme=100% inhibition).

The subject of assay [2] is HeLa cells. The assay can be described thus: Proliferation assay HeLa (Method 3). It counts as cell-based, human. Particulars: 4 days, crystal violet, read-out: Inhibition of HeLa cell proliferation IC50. The protocol: Cultivated tumour cells (HeLa, human cervical tumour cells, ATCC CCL-2; NCI-H460, human non-small cell lung carcinoma cells, ATCC HTB-177; A2780, human ovarian carcinoma cells, ECACC #93112519; DU 145, hormone-independent human prostate carcinoma cells, ATCC HTB-81; HeLa-MaTu-ADR, multidrug-resistant human cervical carcinoma cells, EPO-GmbH Berlin; Caco-2, human colorectal carcinoma cells, ATCC HTB-37; B16F10, mouse melanoma cells, ATCC CRL-6475) were plated at a density of 5,000 cells/well (DU145, HeLa-MaTu-ADR), 3,000 cells/well (NCI-H460, HeLa), 2,500 cells/well (A2780), 1,500 cells/well (Caco-2), or 1,000 cells/well (B16F10) in a 96-well multititer plate in 200 μL of their respective growth medium supplemented 10% fetal calf serum. After 24 hours, the cells of one plate (zero-point plate) were stained with crystal violet (see below), while the medium of the other plates was replaced by fresh culture medium (200 μl), to which the test substances were added in various concentrations (0 μM, as well as in the range of 0.001-10 μM; the final concentration of the solvent dimethyl sulfoxide was 0.5%). The cells were incubated for 4 days in the presence of test substances. Cell proliferation was determined by staining the cells with crystal violet: the cells were fixed by adding 20 μl/measuring point of an 11% glutaric aldehyde solution for 15 minutes at room temperature. After three washing cycles of the fixed cells with water, the plates were dried at room temperature. The cells were stained by adding 100 μl/measuring point of a 0.1% crystal violet solution (pH 3.0). After three washing cycles of the stained cells with water, the plates were dried at room temperature. The dye was dissolved by adding 100 μl/measuring point of a 10% acetic acid solution. The extinction was determined by photometry at a wavelength of 595 nm. The change of cell number, in percent, was calculated by normalization of the measured values to the extinction values of the zero-point plate (=0%) and the extinction of the untreated (0 μm) cells (=100%). The IC50 values (inhibitory concentration at 50% of maximal effect) were determined by means of a 4 parameter fit.

T1 sequence (P50750 whole entry): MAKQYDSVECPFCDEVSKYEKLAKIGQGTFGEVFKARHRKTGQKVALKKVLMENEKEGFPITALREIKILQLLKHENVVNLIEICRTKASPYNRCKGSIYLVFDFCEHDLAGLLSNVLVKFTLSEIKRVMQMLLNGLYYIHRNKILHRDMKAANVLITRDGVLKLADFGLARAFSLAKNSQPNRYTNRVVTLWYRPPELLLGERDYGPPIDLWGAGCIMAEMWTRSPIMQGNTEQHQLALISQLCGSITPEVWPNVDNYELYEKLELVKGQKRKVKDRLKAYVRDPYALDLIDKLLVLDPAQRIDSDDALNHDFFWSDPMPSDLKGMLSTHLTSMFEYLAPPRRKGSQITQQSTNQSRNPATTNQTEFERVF
T1 sequence (O60563 whole entry partner): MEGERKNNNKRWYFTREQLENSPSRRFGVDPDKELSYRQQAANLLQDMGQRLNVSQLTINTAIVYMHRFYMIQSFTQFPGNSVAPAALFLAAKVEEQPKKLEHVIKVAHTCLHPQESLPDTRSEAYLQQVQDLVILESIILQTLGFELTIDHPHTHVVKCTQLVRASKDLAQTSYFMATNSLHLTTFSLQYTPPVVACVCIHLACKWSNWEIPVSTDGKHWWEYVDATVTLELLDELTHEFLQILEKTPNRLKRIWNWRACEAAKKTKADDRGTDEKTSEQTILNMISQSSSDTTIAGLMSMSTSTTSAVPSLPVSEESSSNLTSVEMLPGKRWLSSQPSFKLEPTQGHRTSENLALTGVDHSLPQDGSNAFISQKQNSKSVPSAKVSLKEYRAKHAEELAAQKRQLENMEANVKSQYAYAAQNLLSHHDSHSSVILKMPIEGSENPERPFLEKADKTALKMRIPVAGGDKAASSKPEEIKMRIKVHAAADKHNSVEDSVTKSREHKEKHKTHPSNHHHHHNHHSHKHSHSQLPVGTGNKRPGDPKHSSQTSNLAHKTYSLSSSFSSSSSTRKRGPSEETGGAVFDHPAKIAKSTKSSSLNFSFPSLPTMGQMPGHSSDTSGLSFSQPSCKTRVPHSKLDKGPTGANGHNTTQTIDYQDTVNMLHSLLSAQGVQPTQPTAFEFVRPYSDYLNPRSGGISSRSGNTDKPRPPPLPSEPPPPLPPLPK

`CS(=O)(Cc1cccc(Nc2ncc(F)c(-c3ccc(F)c4ccoc34)n2)c1)=NC#N` (racemic) [Example 1, (rac)-[(3-{[5-Fluoro-4-(4-fluoro-1-benzofuran-7-yl)pyrimidin-2-yl]amino}benzyl)(methyl)oxido-λ^6-sulfanylidene]cyanamide]: in assay [1], the IC50 is 0.9 nM and the “Selectivity high ATP CDK9 over high ATP CDK2: IC50 (high ATP CDK2)/IC50 (high ATP CDK9)” value (from here on “Selectivity high ATP CDK9”) is 622. For the same compound, the IC50 in assay [2] (Homo sapiens, 96 h) was found to be 104 nM.
On to `CS(=N)(=O)Cc1cccc(Nc2ncc(F)c(-c3ccc(F)c4ccoc34)n2)c1` (racemic) [Example 4, (rac)-5-Fluoro-4-(4-fluoro-1-benzofuran-7-yl)-N-{3-[(S-methylsulfonimidoyl)-methyl]phenyl}-pyrimidin-2-amine], for which, in assay [1], the IC50 is 22 nM and the “Selectivity high ATP CDK9” value is on record as 23. Further, the IC50 in assay [2] (Homo sapiens, 96 h) was 297 nM.
As for `CS(=O)(Cc1cc(F)cc(Nc2ncc(F)c(-c3ccc(F)c4ccoc34)n2)c1)=NC#N` (racemic) [Example 7, (rac)-[(3-Fluoro-5-{[5-fluoro-4-(4-fluoro-1-benzofuran-7-yl)pyrimidin-2-yl]amino}benzyl)(methyl)-oxido-λ^6-sulfanylidene]cyanamide], in assay [1], the IC50 came out at 1.9 nM and the “Selectivity high ATP CDK9” value was found to be 343. Moreover, the IC50 in assay [2] (Homo sapiens, 96 h) worked out at 50 nM.
`CS(=N)(=O)Cc1cc(F)cc(Nc2ncc(F)c(-c3ccc(F)c4ccoc34)n2)c1` (racemic) [Example 10, (rac)-5-Fluoro-4-(4-fluoro-1-benzofuran-7-yl)-N-{3-fluoro-5-[(S-methylsulfonimidoyl)-methyl]-phenyl}-pyrimidin-2-amine]: the IC50 in assay [1] worked out at 3.2 nM; in assay [2] (Homo sapiens, 96 h), 97 nM. For the same compound, the “Selectivity high ATP CDK9” value in assay [1] was determined as 563.
Consider `Cc1cc(CS(C)(=O)=NC#N)cc(Nc2ncc(F)c(-c3ccc(F)c4ccoc34)n2)c1` (racemic) [Example 13, (rac)-[(3-{[5-Fluoro-4-(4-fluoro-1-benzofuran-7-yl)pyrimidin-2-yl]amino}-5-methylbenzyl)-(methyl)oxido-λ^6-sulfanylidene]cyanamide], for which the IC50 was 0.88 nM in assay [1] and 40 nM in assay [2] (Homo sapiens, 96 h). In addition, the “Selectivity high ATP CDK9” value in assay [1] is on record as 1364.
As for `Cc1cc(CS(C)(=N)=O)cc(Nc2ncc(F)c(-c3ccc(F)c4ccoc34)n2)c1` (racemic) [Example 16, (rac)-5-Fluoro-4-(4-fluoro-1-benzofuran-7-yl)-N-{3-methyl-5-[(S-methylsulfonimidoyl)-methyl]phenyl}pyrimidin-2-amine], in assay [1], the IC50 turned out to be 6.4 nM and the “Selectivity high ATP CDK9” value is reported as 77. Also, the IC50 in assay [2] (Homo sapiens, 96 h) amounted to 46 nM.
As for `CS(=O)(Cc1cc(Nc2ncc(F)c(-c3ccc(F)c4ccoc34)n2)cc(S(F)(F)(F)(F)F)c1)=NC#N` (racemic) [Example 17, (rac)-{[3-{[5-fluoro-4-(4-fluoro-1-benzofuran-7-yl)pyrimidin-2-yl]amino}-5-(pentafluoro-λ^6-sulfanyl)benzyl](methyl)oxido-λ^6-sulfanylidene}cyanamide], the IC50 is 7.4 nM in assay [1] and 99 nM in assay [2] (Homo sapiens, 96 h). In assay [1], the “Selectivity high ATP CDK9” value was determined as 197.
The corresponding values for `CS(=N)(=O)Cc1cc(Nc2ncc(F)c(-c3ccc(F)c4ccoc34)n2)cc(S(F)(F)(F)(F)F)c1` (racemic) [Example 18, (rac)-5-Fluoro-4-(4-fluoro-1-benzofuran-7-yl)-N-{3-[(S-methylsulfonimidoyl)methyl]-5-(pentafluoro-λ^6-sulfanyl)phenyl}pyrimidin-2-amine] are 4.4 nM, 101 nM and 350.
With `CS(=O)(Cc1cccc(Nc2ncc(F)c(-c3ccc(F)c4ccoc34)n2)c1)=NC#N` (single isomer, unassigned) [Example 2, [(3-{[5-Fluoro-4-(4-fluoro-1-benzofuran-7-yl)pyrimidin-2-yl]amino}benzyl)(methyl)oxido-λ^6-sulfanylidene]cyanamide], in assay [1], the IC50 was 1.1 nM and the “Selectivity high ATP CDK9” value worked out at 321. The IC50 in assay [2] is 100 nM.
As for `CS(=O)(Cc1cccc(Nc2ncc(F)c(-c3ccc(F)c4ccoc34)n2)c1)=NC#N` (single isomer, unassigned) [Example 3, [(3-{[5-Fluoro-4-(4-fluoro-1-benzofuran-7-yl)pyrimidin-2-yl]amino}benzyl)(methyl)oxido-λ^6-sulfanylidene]cyanamide], in assay [1], the IC50 was 1 nM and the “Selectivity high ATP CDK9” value was 475. Further, the IC50 in assay [2] (Homo sapiens, 96 h) worked out at 109 nM.
Turning to `CS(=N)(=O)Cc1cccc(Nc2ncc(F)c(-c3ccc(F)c4ccoc34)n2)c1` (single isomer, unassigned) [Example 5, 5-Fluoro-4-(4-fluoro-1-benzofuran-7-yl)-N-{3-[(S-methylsulfonimidoyl)-methyl]-phenyl}-pyrimidin-2-amine], in assay [1], the IC50 turned out to be 5.6 nM and the “Selectivity high ATP CDK9” value was 143. Further, the IC50 in assay [2] (Homo sapiens, 96 h) was determined as 177 nM.
For `CS(=N)(=O)Cc1cccc(Nc2ncc(F)c(-c3ccc(F)c4ccoc34)n2)c1` (single isomer, unassigned) [Example 6, 5-Fluoro-4-(4-fluoro-1-benzofuran-7-yl)-N-{3-[(S-methylsulfonimidoyl)-methyl]-phenyl}-pyrimidin-2-amine], the IC50 in assay [1] amounted to 3.2 nM; in assay [2], 115 nM. Further, the “Selectivity high ATP CDK9” value in assay [1] is listed as 313.
As to `CS(=O)(Cc1cc(F)cc(Nc2ncc(F)c(-c3ccc(F)c4ccoc34)n2)c1)=NC#N` (single isomer, unassigned) [Example 8, [(3-Fluoro-5-{[5-fluoro-4-(4-fluoro-1-benzofuran-7-yl)pyrimidin-2-yl]amino}benzyl)(methyl)-oxido-λ^6-sulfanylidene]cyanamide], the results for the IC50 in assay [1] and in assay [2] were 1 nM and 89 nM, respectively. Besides, in assay [1], the “Selectivity high ATP CDK9” value is given as 812.
